Reference: patent publication US20050186137A1, “Novelty-induced hypophagia-based assays for identifying agents to treat anxiety and depression” (priority 2003, published 2005)

Assays:
BALB/cJ mice = assay: Prepulse inhibition of startle; format: in vivo, mouse
Protocol: For chronic fluoxetine studies in BALB/cJ mice, 60 male BALB/cJ mice were tested in the OF for 30 min on days 19 or 20 of chronic fluoxetine treatment. Mice were then pretested and tested in the modified FST on days 21 and 22, respectively. Animals were then allowed to adapt to being singly housed, and were trained for NIH on days 25-27. Home cage and novel cage testing occurred on days 28 and 29, respectively. Mice were then assessed for PPI on days 34 or 35.
Studies of subchronic fluoxetine were conducted using separate groups of 60 male BALB/cJ mice to prevent fluoxetine treatment from exceeding one week. One group was tested in the OF after one day of subchronic fluoxetine treatment. Mice were then pretested after 6 and tested after 7 days of subchronic fluoxetine treatment in the modified FST. A second group of BALB/cJ mice began fluoxetine treatment after being singly housed. They were then tested in the NIH test after 4 (home) and 5 (novel) days of subchronic fluoxetine treatment. A third group was tested for PPI after one or two days of subchronic fluoxetine treatment.
Prepulse Inhibition: Startle experiments were performed in MED-Associates chambers. Nonrestrictive Plexiglas cylinders 5 cm in diameter rested on a Plexiglas platform with a transducer amplifier. The sound-dampening isolation chambers were ventilated, well-lit, and equipped with an acoustic stimulator. Data acquisition was performed using Med-Associates software.
Five different trial types were presented in the test session: a 40-msec broadband 120 dB burst (PULSE ALONE trial); three different PREPULSE+PULSE trials in which 20-msec long 3 dB (pp3), 6 dB (pp6), or 12 dB (pp12) stimuli above a 70 dB background preceded the 120 dB pulse by 100 msec (onset to onset), and a NO STIMULUS trial, in which only the background noise was presented. Trials were presented in a pseudo-random order. A variable interval of 10-20 seconds separated trials.
The test session consisted of 62 test trials. The session began with a 10 min acclimation period, followed by four consecutive blocks of test trials. Blocks one and four consisted of six consecutive PULSE ALONE trials, while blocks two and three contained six PULSE ALONE trials, five pp3+p120 trials, five pp6+p120 trials, five pp12+p120 trials, and four NO STIMULUS trials. Analyses were performed using average values for each trial type.
Prepulse Inhibition: PPI was calculated as the averaged startle magnitude caused by PULSE ALONE trials from blocks two and three, minus the averaged startle magnitude caused by the prepulse-pulse trials, all divided by the averaged PULSE ALONE values from blocks two and three. The resulting value was multiplied by 100 and presented as a percent PPI value. Four-factor ANOVAs with fluoxetine and RU24969 as between subjects factors and prepulse intensity and block as within subjects variables assessed percent PPI levels. Interactions were resolved using post-hoc ANOVAs with adjusted p-values, and/or Newman-Keuls post-hoc tests.

animals = animals without drug withdrawal or chronic stress; low dose fluoxetine; cited from earlier work

Compound: COc1ccc2[nH]cc(C3=CCNCC3)c2c1 [RU24969, 5-methoxy-3(1,2,3,6)tetrahydropyridin-4-yl-1H-indole]
- PPI (BALB/cJ mice; 10 mg/kg RU24969 in mice treated subchronically with fluoxetine (1-2 days)): disrupted PPI at each prepulse intensity
- Startle reactivity (blocks two and three) (BALB/cJ mice; 10 mg/kg/day RU24969, chronic fluoxetine study): increased overall
- PPI (BALB/cJ mice; acute 10 mg/kg RU24969 i.p. in control mice (no fluoxetine), 3, 6, 12 dB prepulse intensities): disrupted PPI in control mice
- startle reactivity in the second and third blocks (BALB/cJ mice; subchronic fluoxetine study (1-2 days), 10 mg/kg RU24969): no effects

Compound: CNCCCN1c2ccccc2CCc2ccccc21 [desmethylimipramine]
- intracranial self-stimulation reward thresholds (animals): no effect
